Columns and labels:
Notch4 = experiment: Inhibition of Constitutive Notch Signaling; format: cell-based
[1] = system: recurrent or metastatic ACC with Notch-activating mutations; experiment: Phase 2 trial of Compound (1) in ACC with Notch-activating mutations: response; format: in vivo, human; settings: 4 mg IV once weekly
From the text: FIG. 1. Schema and Baseline Characteristics. Subjects enrolled in the Phase 2 Clinical Trial had (1) Recurrent/metastatic (R/M) adenoid cystic carcinoma (ACC); (2) Notch-activating mutations; (3) Disease progression within prior 6 months, and (4) Eastern Cooperative Oncology Group (ECOG) score <2 (Fully active; no performance restrictions. 1. Strenuous physical activity restricted; fully ambulatory and able to carry out light work. 2. Capable of all self-care but unable to carry out any work activities). Cohort 1 was administered Compound (1) QW at a dose of 4 mg (n=45), and Cohort 2 will be administered Compound (1) QW at a dose of 6 mg (n=42). The primary endpoint is ORR per RECIST v1.1 or modified MDA Bone Response Criteria, by Investigator. Secondary endpoints include Duration of Response (DoR), Progression-Free Survival (PFS), Overall Survival (OS), Safety, and PharmacoKinetics (PKs). The study was conducted in North America, Europe and Israel. aData cutoff: Jul. 30, 2020. ^bSubjects may select more than one category. MDA, M D Anderson.
FIG. 2. Best Overall Responses by Investigator Review (n=40)^a. Subjects were administered 4 mg Compound (1) once per week. The percent change in the tumor diameter is presented for individual subjects. Subjects with Partial Response (PR) are marked in yellow; Stable disease (SD) in dark blue; Progressive Disease (PD) in gray; and Not Evaluable (NE) in black. *confirmed responses.
A Phase 2, Simon 2-Stage optimal design, non-comparative, open-label, single-arm, multicenter study of Compound (1) was conducted in subjects with recurrent or metastatic (RIM) ACC (bone-exclusive disease allowed) who harbor Notchl, Notch2, Notch3, or Notch4 activating mutations (Notch1-4′ nn. Subjects with disease progression ≤6 months of enrollment or newly diagnosed metastatic disease were allowed.
Subjects with known activating Notch mutations, per NGS test results gave their informed consent and underwent screening assessments to determine study eligibility over a 28-day screening period. Available mutation status from prior tests with any commercially available or locally developed NGS assay were acceptable. Any newly characterized mutation (such as tandem duplication, variant allele frequency etc.), was evaluated with the sponsor on a case-by-case basis.
Starting on Cycle 1, Day 1, eligible subjects enrolled in the study received Compound (1), 4 mg intravenously (IV) weekly (qwk), on Days 1, 8, 15, and 22 of each 28-day cycle until disease progression, unacceptable toxicity, or consent withdrawal. Paired tumor biopsies were collected at screening (fresh or archival within 5 years) and upon confirmation of disease progression (provided medically safe and not contraindicated). Samples were sent to a central vendor for NGS analysis. Formalin-fixed paraffin embedded (FFPE) slides were evaluated by IHC for NICDI stain.
During the treatment period, subjects underwent radiographic assessments every 8 weeks (±3 days) for review by Independent Central Review (ICR) as well as by the Investigator. Other assessments performed included safety exploratory biomarkers.
Compound (1) is a potent and selective inhibitor of gamma secretase-mediated Notch signaling. Compound (1) was administered IV at the dose of 4 mg every 7 days (1 day; QW) over 28-day cycles until disease progression, unacceptable toxicity, or consent withdrawal. Compound (1) injection was developed as a single-use sterile solution (1.2 mg/mL; […]) for IV administration in clinical studies; each vial contained 5 mL (equivalent of 6 mg per vial). It was formulated as a sterile concentrate containing Cremophor and ethanol and was diluted with 0.9% Sodium Chloride injection, USP (normal saline) or 5% Dextrose Injection, USP (D5W) to concentrations between 0.01 mg/mL and 0.06 mg/mL. […]

ACC112 cell line = experiment: Alamar Blue cell viability assay; format: cell-based, Human; settings: 10 nM, 14 days, vs DMSO
Procedure: (§1) FIG. 10A. Effect of Compound (1) monotherapy on cell viability in ACC cell lines. ACC83 and ACC112 cell lines were treated with 10 nM Compound (1) or DMSO (control) for 14 days, and cell viability relative to day 0 was determined using an Alamar Blue assay on days 7, 11 and 14. **p<0.01; ***p<0.001.
(§2) Methods: The naturally immortalized sublingual gland derived Human ACC cell line ACC83 and the Human HPV-transformed submaxillary gland derived cell line ACC112 were treated with Compound (1) at 10 nM concentration or DMSO (control) for 14 days. ACC83 cells were cultured in RPMI 1640 medium supplemented with 10% FBS, 10,000 u/ml penicillin-streptomycin and 1 ml L-glutamine. ACC112 cell line was additionally supplemented with 20 ng/ml epidermal growth factor, 400 ng/ml hydrocortisone and 5 μg/ml insulin. Cell viability relative to day 0 was determined using an Alamar Blue assay on days 7, 11 and 14. Cell lines were stained with NICD1 (Cell Signaling, 4147S, 1:200), HES1 (Abcam, ab71559, 1:400), HEY1 (Millipore, AB5714, 1:200), and HESS (Novus Biologicals, NBP241305, 1:200) antibodies using iView DAB detection and the Ventana BenchMark XT staining system (Roche). Area and intensity of diaminobenzidine (DAB) signal was quantified using IHC Profiler color deconvolution plugin within ImageJ software.

ACC83 cell line = experiment: Alamar Blue cell viability assay; format: cell-based, Human; settings: 10 nM, 14 days, vs DMSO
Procedure: as §1, §2

ACC83 cells = experiment: Wound healing (migration) assay; format: cell-based, Human; settings: 10 nM for 14 days, vs untreated cells
Procedure: FIG. 11A. Effect of Compound (1) monotherapy on cell migration in ACC83 cell line. ACC83 cells were treated with either 10 nM Compound (1) or DMSO (control) for 14 days. Cells were then plated in wells containing inserts and allowed to attach for 12 h. The inserts were removed, and the gap was photographed at 0 h and at 12 h (left panel).
Methods: A wound healing assay was carried out to assess migration potential of ACC83 and ACC112 cells. Cells were cultured in triplicate in 6-well plates (1×10^6 cells per well) containing culture inserts (Ibidi). On reaching 90% confluence, the inserts were removed, and cells were cultured for 12 hr. Gap area in individual wells was determined using ImageJ. The gap area percentage was calculated as the gap area at 12 hr relative to the gap area at 0 hr. A Boyden chamber assay was carried out to assess the invasion potential of ACC83 and ACC112 cells. Cells were cultured (1×10^4 cells per well) in triplicate into the upper chamber of Matrigel-coated transwell chambers (8-μm pore size, Corning) in serum-free medium, while 10% FBS medium was added to the bottom chamber to stimulate invasion. After 24 h incubation, the cells in the upper chamber were carefully removed with cotton swab, and the cells that had invaded through Matrigel were stained with 1DiffQuick, photographed at 40× magnification and quantified across three random fields.

In the case of `CN1C(=O)[C@@H](NC(=O)[C@H](CCC(F)(F)F)[C@H](CCC(F)(F)F)C(N)=O)N=C(c2ccccc2)c2ccccc21` [Compound (1), (2R,3S)—N-((3S)-1-methyl-2-oxo-5-phenyl-2,3-dihydro-1H-1,4-benzodiazepin-3-yl)-2,3-bi s(3,3,3-trifluoropropyl)succinamide], the IC50 (Notch4) is reported as 2.9 nM, the “partial responses achieved by week 16” value [1] is reported as 5 out of 6 and the “subjects in the study for at least 24 weeks or still in the study not yet having reached 24 weeks” value ([1]; 16 out of 40) is reported as 40%. The “Missing/NE, best overall response (unconfirmed)” value ([1]; by investigator, n=40) was 3% (1), the “PD, best overall response (unconfirmed)” value ([1]; by investigator, n=40) was 30% (12) and the “PR, best overall response (unconfirmed)” value ([1]; by investigator, n=40) was 15% (6). The overall response rate ([1]; by investigator, n=40) was 15%, the “radiographic scans, baseline vs beginning of Cycle 3 (Week 8)” value ([1]; 4 subjects who achieved partial response) was “tumor shrinkage” and the “cell growth (cell viability relative to day 0)” value (ACC112 cell line) was “potently inhibited cell growth”. For the same molecule, the “cell growth (cell viability relative to day 0)” value (ACC83 cell line) was “potently inhibited cell growth” and the “cell migration (relative gap width at 12 h)” value (ACC83 cells) was “significantly inhibited the migration”.

Source: patent US20230381196A1, “COMPOSITIONS COMPRISING BISFLUOROALKYL-1,4-BENZODIAZEPINONE COMPOUNDS FOR TREATING ADENOID CYSTIC CARCINOMA” (AYALA PHARMACEUTICALS INC., priority 2020, published 2023)
